In PubChem BioAssay (NCI):
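Values below derive from 48-hour exposures of cells grown in 96-well plates, with endpoints linearly interpolated between the two concentrations bracketing the appropriate inhibition level. Abbreviation: GI50, concentration required for 50% inhibition of growth. The concentration for full growth arrest is given as TGI.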

How the values were obtained:
Assay in all cases: NCI tumour cell line growth inhibition, 48 h
[1] = tested on: SF-295 CNS
[2] = tested on: SK-MEL-5 melanoma
[3] = tested on: OVCAR-4 ovarian
[4] = tested on: IGROV1 ovarian
[5] = tested on: SN12C renal
[6] = tested on: HS 578T breast
[7] = tested on: NCI-H460 lung
[8] = tested on: CCRF-CEM leukemia
[9] = tested on: ACHN renal
[10] = tested on: OVCAR-8 ovarian
[11] = tested on: HOP-62 NSCLC
[12] = tested on: NCI-H522 lung
[13] = tested on: T-47D breast
[14] = tested on: NCI-H226 lung
[15] = tested on: SNB-19 CNS
[16] = tested on: BT-549 breast
[17] = tested on: OVCAR-5 ovarian
[18] = tested on: DU-145 prostate
[19] = tested on: EKVX NSCLC
[20] = tested on: NCI/ADR-RES ovarian
[21] = tested on: OVCAR-3 ovarian
[22] = tested on: RPMI-8226 leukemia
[23] = tested on: SR leukemia
[24] = tested on: HL-60(TB) leukemia
[25] = tested on: HT29 colon
[26] = tested on: A549 NSCLC
[27] = tested on: MDA-MB-435
[28] = tested on: SK-MEL-28 melanoma
[29] = tested on: MALME-3M melanoma
[30] = tested on: MDA-MB-231 breast
[31] = tested on: SNB-75 CNS
[32] = tested on: U251 CNS
[33] = tested on: HCC-2998 colon
[34] = tested on: 786-0 renal
[35] = tested on: KM12 colon
[36] = tested on: LOX IMVI melanoma
[37] = tested on: HCT-15 colon
[38] = tested on: UO-31 renal
[39] = tested on: HCT-116 colon
[40] = tested on: COLO 205 colon
[41] = tested on: NCI-H23 lung
[42] = tested on: SK-MEL-2 melanoma
[43] = tested on: SF-268 CNS
[44] = tested on: M14 melanoma
[45] = tested on: CAKI-1 renal
[46] = tested on: MOLT-4 leukemia
[47] = tested on: PC-3 prostate
[48] = tested on: HOP-92 NSCLC
[49] = tested on: TK-10 renal
[50] = tested on: K-562 leukemia
[51] = tested on: MCF7 breast
[52] = tested on: SW-620 colon
[53] = tested on: SK-OV-3 ovarian
[54] = tested on: SF-539 CNS
[55] = tested on: UACC-62 melanoma

`CC(C)(Oc1ccc(Cl)cc1)C(=O)NC1C2CC3CC1CC(NS(C)(=O)=O)(C3)C2` (stereo not given) was tested, and the GI50 [1] was > 100 µM, the TGI [1] was > 100 µM and the GI50 [2] was > 100 µM. For the same compound, the TGI [2] was > 100 µM, the GI50 [3] was 23.3 µM and the TGI [3] was > 100 µM. For the same compound, the GI50 [4] was 54.9 µM, the TGI [4] was > 100 µM and the GI50 [5] was > 100 µM. The TGI [5] was > 100 µM, the GI50 [6] was 33.2 µM and the TGI [6] was > 100 µM. The GI50 [7] was > 100 µM, the TGI [7] was > 100 µM and the GI50 [8] was 39.1 µM. For the same compound, the TGI [8] was > 100 µM, the GI50 [9] was 27.4 µM and the TGI [9] was > 100 µM. The GI50 [10] was > 100 µM, the TGI [10] was > 100 µM and the GI50 [11] was > 100 µM. For the same compound, the TGI [11] was > 100 µM, the GI50 [12] was > 100 µM and the TGI [12] was > 100 µM. For the same compound, the GI50 [13] was > 100 µM, the TGI [13] was > 100 µM and the GI50 [14] was > 100 µM. The TGI [14] was > 100 µM, the GI50 [15] was > 100 µM and the TGI [15] was > 100 µM. It also gave a GI50 [16] of 29.1 µM, a TGI [16] of 83.2 µM and a GI50 [17] of 68.4 µM. For the same compound, the TGI [17] was > 100 µM, the GI50 [18] was > 100 µM and the TGI [18] was > 100 µM. The GI50 [19] was > 100 µM, the TGI [19] was > 100 µM and the GI50 [20] was > 100 µM. The TGI [20] was > 100 µM, the GI50 [21] was > 100 µM and the TGI [21] was > 100 µM. For the same compound, the GI50 [22] was 20.9 µM, the TGI [22] was 68.1 µM and the GI50 [23] was 18.5 µM. The TGI [23] was 58.9 µM, the GI50 [24] was 22.7 µM and the TGI [24] was 58.8 µM. For the same compound, the GI50 [25] was > 100 µM, the TGI [25] was > 100 µM and the GI50 [26] was > 100 µM. For the same compound, the TGI [26] was > 100 µM, the GI50 [27] was > 100 µM and the TGI [27] was > 100 µM. The GI50 [28] was 26.8 µM, the TGI [28] was > 100 µM and the GI50 [29] was 55.5 µM. The TGI [29] was > 100 µM, the GI50 [30] was 66.8 µM and the TGI [30] was > 100 µM. For the same compound, the GI50 [31] was 42.8 µM, the TGI [31] was > 100 µM and the GI50 [32] was > 100 µM. For the same compound, the TGI [32] was > 100 µM, the GI50 [33] was > 100 µM and the TGI [33] was > 100 µM. The GI50 [34] was 37.4 µM, the TGI [34] was > 100 µM and the GI50 [35] was > 100 µM. For the same compound, the TGI [35] was > 100 µM, the GI50 [36] was > 100 µM and the TGI [36] was > 100 µM. For the same compound, the GI50 [37] was > 100 µM, the TGI [37] was > 100 µM and the GI50 [38] was > 100 µM. For the same compound, the TGI [38] was > 100 µM, the GI50 [39] was 38.5 µM and the TGI [39] was > 100 µM. The GI50 [40] was > 100 µM, the TGI [40] was > 100 µM and the GI50 [41] was > 100 µM. For the same compound, the TGI [41] was > 100 µM, the GI50 [42] was > 100 µM and the TGI [42] was > 100 µM. For the same compound, the GI50 [43] was > 100 µM, the TGI [43] was > 100 µM and the GI50 [44] was 26.2 µM. For the same compound, the TGI [44] was 80.1 µM, the GI50 [45] was > 100 µM and the TGI [45] was > 100 µM. It also gave a GI50 [46] of 20.7 µM, a TGI [46] of 84.6 µM and a GI50 [47] of 30.7 µM. The TGI [47] was > 100 µM, the GI50 [48] was 19 µM and the TGI [48] was 69.1 µM. For the same compound, the GI50 [49] was > 100 µM, the TGI [49] was > 100 µM and the GI50 [50] was 34.3 µM. For the same compound, the TGI [50] was > 100 µM, the GI50 [51] was > 100 µM and the TGI [51] was > 100 µM. The GI50 [52] was > 100 µM, the TGI [52] was > 100 µM and the GI50 [53] was > 100 µM. The TGI [53] was > 100 µM, the GI50 [54] was 37.5 µM and the TGI [54] was > 100 µM. The GI50 [55] was 24.1 µM and the TGI [55] was > 100 µM.
